Test results from ChEMBL document CHEMBL1201862, “PubChem BioAssay data set” (2004).
Calls of active or inactive are those of the source. Cut-off read from the data, not from the text of the source, for most assays here: actives have a measured EC50 and inactives only a lower limit.

Tested on: INS1
Experiment: beta cell apoptosis inhibitors, cytokine rescue, dose response, luminescence, retest (AID 449756);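 note: cell death triggered by IL-1 beta plus TNF-alpha plus IFN-gamma mixture; protective hits raise ATP signal compared with cytokine alone wells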
Assay type: functional, cell-based
Conditions: Rattus norvegicus

**Q.** Which AC50 does the source give for `COc1ccc(-c2nc3ccc(C)cn3c2NCc2ccccc2)cc1SC1CCCCC1` here?
**A.** 2.61 µM (active)

**Q.** For `Cc1ccc([N+](=O)[O-])cc1N(CC(=O)Nc1ccc(S(=O)(=O)Nc2cccc(C(F)(F)F)c2)cc1)S(C)(=O)=O`, which AC50 is on record?
**A.** 2.56 µM (active)

**Q.** With `O=C(NNC(=O)c1ccccc1OCc1ccc(F)cc1)c1ccccc1O` as the compound, how does the AC50 read?
**A.** 2.67 µM (active)

**Q.** With `COc1ccccc1OCCCCOc1ccccc1C(C)=O` as the compound, how does the AC50 read?
**A.** 12 µM (active)

**Q.** For `COc1ccc(NC(=O)N(C)C[C@H]2Oc3c(NS(=O)(=O)c4ccc(F)cc4)cccc3C(=O)N([C@H](C)CO)C[C@@H]2C)cc1`, which AC50 is on record?
**A.** > 260 µM (inactive)

Tested on: not listed separately
Experiment: inhibitors of intracellular T. cruzi replication, confirmation, NIH3T3 host cells, beta-gal luminescence (AID 2044);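 note: intracellular parasites grown in NIH/3T3 mouse fibroblasts as host cells; luminescent beta-galactosidase reporter signal from transgenic T. cruzi replicating inside host cells; inhibitors lower the luminescence signal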
Assay type: functional, cell-based
Conditions: not given

**Q.** With `COc1ccc(-c2nc3ccc(C)cn3c2NCc2ccccc2)cc1SC1CCCCC1` as the compound, how does the EC50 read?
**A.** 1.2 µM (active)

**Q.** Which EC50 does the source give for `Cc1ccc([N+](=O)[O-])cc1N(CC(=O)Nc1ccc(S(=O)(=O)Nc2cccc(C(F)(F)F)c2)cc1)S(C)(=O)=O` here?
**A.** 1.86 µM (active)

Target: T1, Streptokinase A (Streptococcus pyogenes serotype M1, UniProt P10520)
T1 sequence (P10520 whole entry): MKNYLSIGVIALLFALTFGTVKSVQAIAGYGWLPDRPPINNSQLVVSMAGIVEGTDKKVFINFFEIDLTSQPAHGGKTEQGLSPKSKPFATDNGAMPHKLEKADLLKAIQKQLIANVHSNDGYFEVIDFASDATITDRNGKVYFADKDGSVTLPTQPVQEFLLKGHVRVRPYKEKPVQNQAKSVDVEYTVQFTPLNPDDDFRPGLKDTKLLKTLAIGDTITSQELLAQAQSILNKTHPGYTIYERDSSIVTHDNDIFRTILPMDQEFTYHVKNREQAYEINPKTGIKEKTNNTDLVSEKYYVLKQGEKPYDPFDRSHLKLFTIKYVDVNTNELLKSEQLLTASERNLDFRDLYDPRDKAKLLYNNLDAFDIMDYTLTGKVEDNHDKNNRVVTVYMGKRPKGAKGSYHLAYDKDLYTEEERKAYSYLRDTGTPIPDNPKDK
Experiment: S. pyogenes streptokinase expression inhibitors, potency, dose response, plasminogen activation absorbance, OD405 (AID 1914);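 note: secreted streptokinase activity via plasminogen activation per viability signal from cell pellet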
Assay type: functional, Streptococcus pyogenes M1 GAS
Conditions: not given

**Q.** Which EC50 does the source give for `CN1C(=O)NC(c2ccccc2)(C(F)(F)F)S/C1=C(/C#N)c1nnc(N2CCOCC2)n1-c1ccccc1` (configuration not stated) here?
**A.** > 150 µM (not active)

Tested on: H4
Experiment: Luminescence Cell-Based Dose Response HTS to Identify Activators of 5'UTR Stem-Loop Driven Prion Protein mRNA Translation in H4 Neuroglioblastoma Cells. [Related pubchem assays: 1829 (Project Summary), 1814 (Primary HTS)]
Assay type: functional
Conditions: Homo sapiens

**Q.** Which EC50 does the source give for `Cc1cc(-c2sccc2Br)nc(-n2cccc2)n1` here?
**A.** 9.52 µM (active)

Target: T2, Heat shock factor protein 1 (Mus musculus, UniProt P38532)
T2 sequence (P38532 whole entry): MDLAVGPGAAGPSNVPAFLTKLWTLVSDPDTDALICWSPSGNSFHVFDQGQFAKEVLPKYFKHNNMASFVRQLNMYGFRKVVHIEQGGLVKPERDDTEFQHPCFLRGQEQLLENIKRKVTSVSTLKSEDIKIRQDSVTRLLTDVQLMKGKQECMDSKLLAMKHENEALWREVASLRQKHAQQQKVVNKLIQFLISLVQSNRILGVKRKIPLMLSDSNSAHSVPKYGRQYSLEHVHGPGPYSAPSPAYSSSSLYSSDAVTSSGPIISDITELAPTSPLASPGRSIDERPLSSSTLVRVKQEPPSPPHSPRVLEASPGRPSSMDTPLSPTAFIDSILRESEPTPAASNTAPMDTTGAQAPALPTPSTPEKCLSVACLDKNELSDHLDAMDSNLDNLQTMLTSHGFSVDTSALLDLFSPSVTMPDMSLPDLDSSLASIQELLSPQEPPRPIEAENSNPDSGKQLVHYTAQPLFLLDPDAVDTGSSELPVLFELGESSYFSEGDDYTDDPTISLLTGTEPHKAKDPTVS
Experiment: inhibition of MG132-induced HSE-luciferase signal, confirmation, cell-based, NIH3T3, luminescence, dose retest (AID 2382);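 note: NIH3T3 fibroblasts with HSF1-driven luciferase reporter stressed by proteasome inhibitor MG132; luminescence from HSF1-driven luciferase expression after 8 hours of MG132 stress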
Assay type: functional
Conditions: not given

**Q.** For `CC(C)(C)c1ccc(/C=C2\SC(=O)N(CCNC(=O)c3cccc(S(=O)(=O)N4CCOCC4)c3)C2=O)cc1`, which EC50 is on record?
**A.** 2.43 µM (active)

**Q.** Which EC50 does the source give for `CN(C(=O)c1ccccc1C(=O)OCC(=O)Nc1ccc(S(N)(=O)=O)cc1)c1ccccc1` here?
**A.** > 195 µM (not active)

**Q.** For `C/[N+]([O-])=C\C1C(=O)CC(C)(C)CC1=O`, which EC50 is on record?
**A.** > 195 µM (not active)

**Q.** With `COC(=O)c1ccc(NC(=O)NC2CCCCC2)cc1` as the compound, how does the EC50 read?
**A.** > 195 µM (not active)

**Q.** With `Cc1ccnc(NC(=O)CS(=O)(=O)c2ccccc2)c1` as the compound, how does the EC50 read?
**A.** > 195 µM (not active)

**Q.** For `NS(=O)(=O)c1ccc(CNC(=O)c2cnccn2)cc1`, which EC50 is on record?
**A.** > 195 µM (not active)

Target: T3, Corticotropin-releasing factor receptor 2/Corticotropin-releasing factor-binding protein (Homo sapiens, UniProt P24387+Q13324)
T3 sequence (Q13324 whole entry): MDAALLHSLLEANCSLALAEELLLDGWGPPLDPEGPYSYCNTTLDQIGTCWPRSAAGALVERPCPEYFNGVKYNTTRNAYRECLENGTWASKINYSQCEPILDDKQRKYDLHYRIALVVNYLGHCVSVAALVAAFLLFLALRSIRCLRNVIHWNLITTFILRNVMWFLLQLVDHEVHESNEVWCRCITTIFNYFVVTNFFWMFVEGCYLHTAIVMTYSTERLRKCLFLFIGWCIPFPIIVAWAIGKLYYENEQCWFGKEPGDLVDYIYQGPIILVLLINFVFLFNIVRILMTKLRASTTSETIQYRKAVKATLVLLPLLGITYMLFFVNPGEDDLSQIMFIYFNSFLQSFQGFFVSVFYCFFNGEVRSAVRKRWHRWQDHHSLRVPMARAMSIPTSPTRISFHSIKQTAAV
T3 sequence (P24387 whole entry): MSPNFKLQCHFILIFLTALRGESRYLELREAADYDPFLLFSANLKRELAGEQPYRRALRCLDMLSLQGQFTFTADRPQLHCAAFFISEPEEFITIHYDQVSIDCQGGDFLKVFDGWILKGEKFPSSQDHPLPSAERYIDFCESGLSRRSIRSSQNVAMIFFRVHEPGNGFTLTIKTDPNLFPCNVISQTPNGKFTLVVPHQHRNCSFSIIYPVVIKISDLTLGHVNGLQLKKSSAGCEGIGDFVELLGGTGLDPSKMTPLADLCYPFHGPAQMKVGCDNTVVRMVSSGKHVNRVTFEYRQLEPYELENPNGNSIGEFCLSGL
Experiment: Dose Response confirmation of uHTS hits for small molecule antagonists of the CRF-binding protein and CRF-R2 receptor complex.
Assay type: functional
Conditions: read-out: IC50_Mean

**Q.** For `CCOC(=O)C1CCCN(C2CC(=O)N(c3ccccc3)C2=O)C1` (configuration not stated), which IC50 is on record?
**A.** > 47.1 µM (inactive)

**Q.** With `CN1C(=O)NC(c2ccccc2)(C(F)(F)F)S/C1=C(/C#N)c1nnc(N2CCOCC2)n1-c1ccccc1` (configuration not stated) as the compound, how does the IC50 read?
**A.** > 47.1 µM (inactive)

**Q.** With `CCc1sc(C(=O)NCCc2ccc(S(N)(=O)=O)cc2)cc1Br` as the compound, how does the IC50 read?
**A.** > 47.1 µM (inactive)

**Q.** For `C/[N+]([O-])=C\C1C(=O)CC(C)(C)CC1=O`, which IC50 is on record?
**A.** > 47.1 µM (inactive)

**Q.** Which IC50 does the source give for `CN(Cc1ccccc1)S(=O)(=O)c1nnc(NC(=O)c2ccc(F)cc2)s1` here?
**A.** < 0.368 µM (active)

**Q.** Which IC50 does the source give for `O=C1Nc2ccccc2N(O)N1c1cc(-c2cccc(Cl)c2)no1` here?
**A.** > 47.1 µM (inactive)

Target: FAD-linked sulfhydryl oxidase ALR (Homo sapiens, UniProt P55789)
Sequence (P55789 whole entry): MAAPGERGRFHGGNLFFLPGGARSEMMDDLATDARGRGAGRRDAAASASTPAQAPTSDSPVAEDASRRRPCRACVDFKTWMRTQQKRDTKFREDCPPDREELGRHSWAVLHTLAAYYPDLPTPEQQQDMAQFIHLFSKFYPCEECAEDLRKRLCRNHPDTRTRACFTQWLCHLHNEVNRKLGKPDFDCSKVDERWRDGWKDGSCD
Experiment: inhibitors of human ALR sulfhydryl oxidase, dose response, biochemical, H2O2 detection, luminescence, cherry-pick (AID 493248)
Conditions: not given

**Q.** For `O=C1Nc2ccccc2N(O)N1c1cc(-c2cccc(Cl)c2)no1`, which AC50 is on record?
**A.** 1.92 µM (active)

Tested on: not listed separately
Experiment: cytotoxicity toward NIH3T3 fibroblasts, dose response, counter-screen, cell-based, ATP luminescence, mouse fibroblasts (AID 2010);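 note: cells exposed to compound for about 90 hours before reading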
Assay type: functional
Conditions: not given

**Q.** With `COc1ccc(-c2nc3ccc(C)cn3c2NCc2ccccc2)cc1SC1CCCCC1` as the compound, how does the EC50 read?
**A.** > 60 µM (not active)

**Q.** With `Cc1ccc([N+](=O)[O-])cc1N(CC(=O)Nc1ccc(S(=O)(=O)Nc2cccc(C(F)(F)F)c2)cc1)S(C)(=O)=O` as the compound, how does the EC50 read?
**A.** > 60 µM (not active)

Tested on: Streptococcus sp. 'group A'
Experiment: growth inhibition of control SK(-) GAS strain, dose response, counter-screen for streptokinase expression inhibitor project, luminescence, kanamycin, BacTiterGlo, confirmation (AID 1900)
Assay type: functional, organism-based
Conditions: not given

**Q.** Which EC50 does the source give for `CN1C(=O)NC(c2ccccc2)(C(F)(F)F)S/C1=C(/C#N)c1nnc(N2CCOCC2)n1-c1ccccc1` (configuration not stated) here?
**A.** > 150 µM (not active)

**Q.** Which EC50 does the source give for `O=C(NNC(=O)c1ccccc1OCc1ccc(F)cc1)c1ccccc1O` here?
**A.** 3.68 µM (active)

Tested on: not listed separately
Experiment: Luminescence Cell-Based Dose Response HTS to Identify Activators of Luciferase Translation or Activity in H4 […] Cells. [Related pubchem assays: 1829 (Project Summary), 1814 (Primary HTS)]
Assay type: functional
Conditions: not given

**Q.** With `Cc1cc(-c2sccc2Br)nc(-n2cccc2)n1` as the compound, how does the EC50 read?
**A.** 13.3 µM (active)

Tested on: not listed separately
Experiment: Luminescence Cell-Based Dose Confirmation HTS to Identify Activators of 5'UTR Stem-Loop Driven Alpha-Synuclein mRNA Translation in H4 Neuroglioblastoma Cells. [Related pubchem assays: 1829 (Project Summary), 1814 (Primary HTS)]
Assay type: functional
Conditions: not given

**Q.** Which EC50 does the source give for `Cc1cc(-c2sccc2Br)nc(-n2cccc2)n1` here?
**A.** > 120 µM (not active)

Tested on: Streptococcus
Experiment: Group A Streptococcus viability loss, dose response, counter-screen for streptokinase expression inhibitor project, luminescence, BacTiterGlo (AID 1915);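 note: potency for reduction of bacterial viability or growth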
Assay type: functional, organism-based
Conditions: not given

**Q.** For `CN1C(=O)NC(c2ccccc2)(C(F)(F)F)S/C1=C(/C#N)c1nnc(N2CCOCC2)n1-c1ccccc1` (configuration not stated), which EC50 is on record?
**A.** > 150 µM (not active)

**Q.** Which EC50 does the source give for `O=C(NNC(=O)c1ccccc1OCc1ccc(F)cc1)c1ccccc1O` here?
**A.** 3.62 µM (active)

Target: T3, Corticotropin-releasing factor receptor 2/Corticotropin-releasing factor-binding protein
Experiment: activators of CRF receptor 2 with binding protein – uHTS hits, confirmation (AID 602473)
Assay type: functional
Conditions: read-out: EC50_Mean

**Q.** Which EC50 does the source give for `CCOC(=O)C1CCCN(C2CC(=O)N(c3ccccc3)C2=O)C1` (configuration not stated) here?
**A.** > 53 µM (inactive)

**Q.** Which EC50 does the source give for `CN1C(=O)NC(c2ccccc2)(C(F)(F)F)S/C1=C(/C#N)c1nnc(N2CCOCC2)n1-c1ccccc1` (configuration not stated) here?
**A.** > 53 µM (inactive)

**Q.** Which EC50 does the source give for `CCc1sc(C(=O)NCCc2ccc(S(N)(=O)=O)cc2)cc1Br` here?
**A.** > 53 µM (inactive)

**Q.** With `C/[N+]([O-])=C\C1C(=O)CC(C)(C)CC1=O` as the compound, how does the EC50 read?
**A.** > 53 µM (inactive)

**Q.** For `CN(Cc1ccccc1)S(=O)(=O)c1nnc(NC(=O)c2ccc(F)cc2)s1`, which EC50 is on record?
**A.** > 53 µM (inactive)

**Q.** With `O=C1Nc2ccccc2N(O)N1c1cc(-c2cccc(Cl)c2)no1` as the compound, how does the EC50 read?
**A.** 6.32 µM (active)

Tested on: not listed separately
Experiment: Luminescence Cell-Based Dose Retest to Confirm Inhibitors of Cancer Stem Cells. [Related pubchem assays (depositor defined):AID2717, AID2721]
Assay type: functional
Conditions: Homo sapiens

**Q.** Which AC50 does the source give for `Cc1ccc([N+](=O)[O-])cc1N(CC(=O)Nc1ccc(S(=O)(=O)Nc2cccc(C(F)(F)F)c2)cc1)S(C)(=O)=O` here?
**A.** 3.7 µM (active)
